Source: US20250073248A1, “BIORESORBABLE CATIONIC STEROIDAL ANTIMICROBIAL COMPOUNDS WITH GLYCERIDE LINKAGES” (BRIGHAM YOUNG UNIVERSITY, priority 2023, published 2025)
≈ marks a conversion by molar mass, not a printed value.

Columns and labels:
[1] = tested on: Pseudomonas aeruginosa 01 (PA01); assay: MIC and MBC, broth microdilution, PA01 (Table 1); type: cell-based; conditions: Pseudomonas aeruginosa
From the text: (§1) To investigate the antimicrobial impact of structural variance in the novel bioresorbable CSA compounds disclosed herein,Pseudomonas aeruginosa 01 (PA01), methicillin-resistant Staphylococcus aureus (MRSA), and Candida albicans (CA) were selected, representing Gram-negative bacterial, Gram-positive bacterial, and fungal pathogens of high or critical priority on the world health organization's priority lists for bacteria and fungi. Earlier applications of CSA compounds have focused on preventing medical device infections, and all three strains are commonly found in colonized implants, making efficacy against these pathogens an important indicator of future applicability.
(§2) All compounds were screened against these pathogens to determine their minimum inhibitory concentration (MIC), minimum bactericidal concentration (MBC), and minimum fungicidal concentration (MFC) using a broth microdilution method. […] Of these three, only CSA-4110 was similarly active against PA01and CA, inhibiting growth at 8 μg/mL.

Candida albicans (CA) = assay: MIC and MFC, broth microdilution, CA (Table 1); type: cell-based; conditions: Candida albicans
From the text: as §1, §2

A. baumannii ATCC 19606 = assay: MIC/MBC of CSA-4110, Gram negative bacteria (Table 3); type: cell-based; conditions: Acinetobacter baumannii, ATCC19606
Description: as §2
(§3) CSA-4110 was evaluated further against a broader range of bacterial and fungal strains. Acinetobacter baumannii and several isolates of Staphylococcus aureus, Klebsiella pneumoniae, and Candida auris were selected, further broadening the coverage of high and critical priority pathogens. Streptococcus uberis, Staphylococcus pseudintermedius, Proteus mirabilis, and Escherichia coli were also screened to obtain a more complete efficacy profile. […] For comparison, previous work established the MICs of CSA-131 against strains of Staphylococcus aureus, Pseudomonas aeruginosa, and Candida albicans at 0.5-2 μg/mL

E. coli ATCC 25922 = assay: as above; type: cell-based; conditions: Escherichia coli, ATCC25922
Description: as §2, §3

K. pneumoniae ARLG 1360 = assay: as above; type: cell-based; conditions: Klebsiella pneumoniae, ARLG1360
Description: as §2, §3

[2] = tested on: K. pneumoniae ATCC BAA-1706; assay: as above; type: cell-based; conditions: Klebsiella pneumoniae, ATCCBAA1706
Description: as §2, §3

P. aeruginosa ATCC 27853 = assay: as above; type: cell-based; conditions: Pseudomonas aeruginosa, ATCC27853
Description: as §2, §3

C. auris CDC 381 = assay: MIC/MFC of CSA-4110, fungi (Table 4); type: cell-based, Candida auris; conditions: Candidozyma auris, CDC381
Description: as §2, §3

C. auris CDC 382 = assay: MIC/MFC of CSA-4110, fungi (Table 4); type: cell-based, Candida auris; conditions: Candidozyma auris, CDC382
Description: as §2, §3

C. auris CDC 383 = assay: MIC/MFC of CSA-4110, fungi (Table 4); type: cell-based, Candida auris; conditions: Candidozyma auris, CDC383
Description: as §2, §3

C. auris CDC 384 = assay: MIC/MFC of CSA-4110, fungi (Table 4); type: cell-based, Candida auris; conditions: Candidozyma auris, CDC384
Description: as §2, §3

C. auris CDC 385 = assay: MIC/MFC of CSA-4110, fungi (Table 4); type: cell-based, Candida auris; conditions: Candidozyma auris, CDC385
Description: as §2, §3

C. auris CDC 386 = assay: MIC/MFC of CSA-4110, fungi (Table 4); type: cell-based, Candida auris; conditions: Candidozyma auris, CDC386
Description: as §2, §3

C. auris CDC 387 = assay: MIC/MFC of CSA-4110, fungi (Table 4); type: cell-based, Candida auris; conditions: Candidozyma auris, CDC387
Description: as §2, §3

C. auris CDC 388 = assay: MIC/MFC of CSA-4110, fungi (Table 4); type: cell-based, Candida auris; conditions: Candidozyma auris, CDC388
Description: as §2, §3

C. auris CDC 389 = assay: MIC/MFC of CSA-4110, fungi (Table 4); type: cell-based, Candida auris; conditions: Candidozyma auris, CDC389
Description: as §2, §3

C. auris CDC 390 = assay: MIC/MFC of CSA-4110, fungi (Table 4); type: cell-based, Candida auris; conditions: Candidozyma auris, CDC390
Description: as §2, §3

[3] = tested on: broader range of bacterial and fungal strains; assay: CSA-4110 against a broader range of bacterial and fungal strains (summary of Tables 2-4); type: cell-based
Description: as §2, §3

[4] = tested on: methicillin-resistant Staphylococcus aureus (MRSA); assay: Example 1 MIC/MBC (FIG. 1, FIG. 2), MRSA; type: cell-based
Description: (§4) The antimicrobial activities of CSA-4108, CSA-4110, CSA-4112, and CSA-4114 were determined relative to methicillin-resistant Staphylococcus aureus (MRSA), Pseudomonas aeruginosa (Pa), and Candida albicans 90028. The minimum inhibitory concentration (MIC) for CSA-4108, CSA-4110, CSA-4112, and CSA-4114 relative to the foregoing microbes is graphically reported in FIG. 1. The minimum bactericidal concentration (MBC) and minimum fungicidal concentration […] for CSA-4108, CSA-4110, CSA-4112, and CSA-4114 relative to the foregoing microbes are graphically reported in FIG. 2.

Candida albicans 90028 = assay: Example 1 MIC/MFC (FIG. 1, FIG. 2), C. albicans; type: cell-based
Description: as §4

physchem = type: physicochemical; conditions: for half-life: buffer
Description: The stability, more particularly the rate of hydrolysis in water, of CSA-4110 was tested at various pH values or when exposed to lipase.
To measure the stability of CSA-4110 under various conditions (pH and presence of lipase), monitored degradation over time by HPLC. To enable UV/visible detection, CSA-4110 required derivatization with a chromophore. A precolumn derivatization method was adapted using Fmoc-Cl. This method also required CSA-131 as an internal standard to eliminate errors due to volumetric variations.
With a reliable quantitative analysis method in hand, the optimal storage conditions were determined for CSA-4110 in solution and how quickly CSA-4110 degrades when exposed to mammalian lipases and varied pH. Reference is again made to FIGS. 3A-3D.

[5] = all strains of Tables 2-4 except Proteus mirabilis

**Q.** With `CCCCCCCCCC(=O)OCC(O)COC(=O)CC[C@@H](C)[C@H]1CC[C@H]2[C@@H]3[C@H](OC(=O)CCN)C[C@@H]4C[C@H](OC(=O)CCN)CC[C@]4(C)[C@H]3C[C@H](OC(=O)CCN)[C@]12C` (stereo partly drawn) [CSA-4110] as the compound, how does the MBC ([1]; MBC, value in parentheses) read?
**A.** 32 µg/mL (≈ 37.6 µM)

**Q.** And the MIC ([1]; first value of cell)?
**A.** 8 µg/mL (≈ 9.41 µM)

**Q.** What about the MBC (Candida albicans (CA); MFC, value in parentheses) of the same compound?
**A.** 16 µg/mL (≈ 18.8 µM)

**Q.** And the MIC (Candida albicans (CA); first value of cell)?
**A.** 8 µg/mL (≈ 9.41 µM)

**Q.** What about the MBC (A. baumannii ATCC 19606) of the same compound?
**A.** 4 µg/mL

**Q.** What about the MIC (A. baumannii ATCC 19606) of the same compound?
**A.** 4 µg/mL

**Q.** And the MBC (E. coli ATCC 25922)?
**A.** 4 µg/mL

**Q.** What about the MIC (E. coli ATCC 25922) of the same compound?
**A.** 4 µg/mL

**Q.** And the MBC (K. pneumoniae ARLG 1360)?
**A.** 8 µg/mL

**Q.** And the MIC (K. pneumoniae ARLG 1360)?
**A.** 8 µg/mL

**Q.** What about the MBC [2] of the same compound?
**A.** 4 µg/mL

**Q.** And the MIC [2]?
**A.** 4 µg/mL

**Q.** What about the MBC (P. aeruginosa ATCC 27853) of the same compound?
**A.** 8 µg/mL

**Q.** And the MIC (P. aeruginosa ATCC 27853)?
**A.** 4 µg/mL

**Q.** And the MBC (C. auris CDC 381)?
**A.** 8 µg/mL (≈ 9.41 µM)

**Q.** And the MIC (C. auris CDC 381)?
**A.** 8 µg/mL (≈ 9.41 µM)

**Q.** What about the MBC (C. auris CDC 382) of the same compound?
**A.** 16 µg/mL (≈ 18.8 µM)

**Q.** And the MIC (C. auris CDC 382)?
**A.** 8 µg/mL (≈ 9.41 µM)

**Q.** And the MBC (C. auris CDC 383)?
**A.** 16 µg/mL (≈ 18.8 µM)

**Q.** And the MIC (C. auris CDC 383)?
**A.** 8 µg/mL (≈ 9.41 µM)

**Q.** What about the MBC (C. auris CDC 384) of the same compound?
**A.** 16 µg/mL (≈ 18.8 µM)

**Q.** What about the MIC (C. auris CDC 384) of the same compound?
**A.** 4 µg/mL (≈ 4.71 µM)

**Q.** And the MBC (C. auris CDC 385)?
**A.** 16 µg/mL (≈ 18.8 µM)

**Q.** What about the MIC (C. auris CDC 385) of the same compound?
**A.** 8 µg/mL (≈ 9.41 µM)

**Q.** And the MBC (C. auris CDC 386)?
**A.** 16 µg/mL (≈ 18.8 µM)

**Q.** And the MIC (C. auris CDC 386)?
**A.** 8 µg/mL (≈ 9.41 µM)

**Q.** What about the MBC (C. auris CDC 387) of the same compound?
**A.** 16 µg/mL (≈ 18.8 µM)

**Q.** And the MIC (C. auris CDC 387)?
**A.** 8 µg/mL (≈ 9.41 µM)

**Q.** What about the MBC (C. auris CDC 388) of the same compound?
**A.** 16 µg/mL (≈ 18.8 µM)

**Q.** What about the MIC (C. auris CDC 388) of the same compound?
**A.** 8 µg/mL (≈ 9.41 µM)

**Q.** And the MBC (C. auris CDC 389)?
**A.** 16 µg/mL (≈ 18.8 µM)

**Q.** What about the MIC (C. auris CDC 389) of the same compound?
**A.** 8 µg/mL (≈ 9.41 µM)

**Q.** What about the MBC (C. auris CDC 390) of the same compound?
**A.** 16 µg/mL (≈ 18.8 µM)

**Q.** And the MIC (C. auris CDC 390)?
**A.** 8 µg/mL (≈ 9.41 µM)

**Q.** What about the “MBCs/MFCs, range over the strains” value [3, 5] of the same compound?
**A.** 2 to 16 µg/mL

**Q.** What about the “MICs, range over the strains” value [3, 5] of the same compound?
**A.** 2 to 8 µg/mL

**Q.** And the “MICs, range as restated in the CMC paragraph” value ([3]; compared with CMC)?
**A.** 2 to 8 g/mL

**Q.** And the “MBC (FIG. 2), ranking in words” value [4]?
**A.** lowest MBC and MFC

**Q.** And the “MIC (FIG. 1), ranking in words” value [4]?
**A.** lowest MIC

**Q.** And the “MFC (FIG. 2), ranking in words” value (Candida albicans 90028)?
**A.** lowest MBC and MFC

**Q.** What about the “MIC (FIG. 1), ranking in words” value (Candida albicans 90028) of the same compound?
**A.** same MIC

**Q.** And the half-life (physchem; pH 7.2)?
**A.** 108 h

**Q.** And the half-life (physchem; pH 10)?
**A.** 24 h

**Q.** What about the “stability / hydrolysis in aqueous solution” value (physchem; pH 7.2) of the same compound?
**A.** less stable

**Q.** What about the “stability / hydrolysis in aqueous solution” value (physchem; pH 10) of the same compound?
**A.** unstable
